Columns and labels:
[1] = test system: pancreatic adenocarcinoma cells; conditions: in one study; cited from earlier work
[2] = test system: pancreatic adenocarcinoma cells; experiment: DNA synthesis by bromodeoxyuridine (BrdU) incorporation into adenocarcinoma cells; assay type: cell-based, human; conditions: 24 hours
Source text: To investigate whether these peptide hormones were inhibiting DNA synthesis and cell proliferation bromodeoxyuridine (BrdU) incorporation into the adenocarcinoma cells was utilized. BrdU was from BD Bioscience, San Jose, Calif. DNA synthesis and doubling of the genome take place during the synthetic or S phase. BrdU is a thymidine analog incorporated into nuclear DNA during the S phase of the cell cycle. Immunohistochemical methods use BrdU also as a marker of cell proliferation in cancer biology studies. After 24 hours in culture with 1 μM of LANP, vessel dilator, kaliuretic peptide, or ANP, respectively, or with no peptide hormone (i.e., control), BrdU in a final concentration of 10 μM in the cell culture medium was added for 45 minutes—which is time in which the cells are in the logarithmic phase of cell proliferation. For immunohistochemistry, a BrdU in situ detection kit from Becton Dickinson Immunocytochemistry Systems, San Jose, Calif., was utilized.
After the 45 minutes with BrdU, the adenocarcinoma cells were washed three times in phosphate buffered saline (PBS), five minutes each. This was followed by placing the cells in a −80° C. freezer for five minutes and then 100% methanol was added at 5° C. in order for the cells to become permeable enabling the anti-BrdU antibody to reach the nucleus of the cell. The cells were then washed again in PBS before 100 μl of biotinylated anti-BrdU antibody was added. The coverslips were then incubated in a humidified chamber for one hour. After this incubation, the slides were rinsed in PBS, two minutes each. Then streptavidin-horseradish peroxidase (HRP) was added to each coverslip. The cells were then incubated for 30 minutes. Streptavidin-HRP binds to biotinylated anti-BrdU and HRP is used with addition of diaminobenzidine (DAB) substrate system to visualize BrdU incorporation into the adénocarcinoma cells. After the 30 minute incubation with streptavidin-HRP, the coverslips were rinsed in PBS, two minutes each time, before adding the DAB substrate solution, which contains DAB chromagen and DAB buffer, for five minutes. The coverslips were then rinsed in water, two minutes each time before counterstaining the slides with hematoxylin for 60 seconds followed by a thorough rinsing in water for five minutes. The incorporation of the BrdU stain into the nucleus was then counted using a Nikon Inverted Diaphot-TMD Microscope (Tokyo, Japan). The number of stained nuclei was compared in the four peptide hormone groups to the positive control group. The negative control for these studies was provided by Becton Dickinson Immunocytochemistry Systems.
BrdU has an advantage over ^3H-thymidine incorporation in that it takes less time and provides high resolution.
Cyclic GMP and prostaglandin E2 are the two known mediators of all of the previously described biologic effects of these four peptide hormones. All four of these peptide hormones-induced vasodilation of vasculature is mediated by increased cyclic GMP concentrations via enhancing guanylate cyclase activity. […] ANPs effects in the kidney are thought to be mediated by cyclic GMP. Each of these peptide hormones increase cyclic GMP while simultaneously dilating vasculature. 8 bromo-cyclic GMP reproduces these vasodilatory effects. For the present investigation of the mechanism of these peptide hormones' ability to inhibit DNA synthesis in cancer cells, 8-bromoguanosine 3′,5′-cyclic monophosphate (i.e., 8-bromo cyclic GMP, Sigma-Aldrich Co., St. Louis, Mo.) was utilized. 8-bromo cyclic GMP is a cell-permeable analog of cyclic GMP. 8-bromo cyclic GMP effects on DNA synthesis were investigated in dose-response curves with cyclic GMP concentrations ranging from 100 pM to 5 mM.
Prostaglandin E2, i.e., (5Z, 11α, 13E, 15S)-11, 15-dihydro-9-oxo-prosta-5, 13-dien-I-oic acid was purchased from Sigma-Aldrich, St. Louis, Mo. […]

[3] = test system: pancreatic adenocarcinoma cell line, ATCC number CRL-2119; experiment: Number of pancreatic adenocarcinoma cells in culture, counted by microscope; assay type: cell-based, human; conditions: for number of cancer cells compared to controls: 48 hours
Source text: The pancreatic adenocarcinoma cell line, ATCC number CRL-2119, was derived in 1985 from a nude mouse xenograft of a primary tumor removed from the head of the pancreas. It is a moderate to well-differentiated pancreatic adenocarcinoma of ductal origin. These pancreatic adenocarcinoma cells are stimulated to proliferate in culture by insulin, insulin-like growth factor I (IGF-I), epidermal growth factor (EGF), and transforming growth factor alpha (TGF alpha). These adenocarcinoma cells contain significant concentrations of tumor-associated antigens CEA, CA 125, and CA 19-9. In culture, these adenocarcinoma cells form monolayers of morphologically heterogeneous polar epithelial cells. These cells are tumorgenic in that they form tumors in athymic nude mice at the site of inoculation that are histologically similar to the tumor of origin.
Propagation of these cells was in Dulbecco's modified Eagle's plus Ham's F12-A 1:1 mixture of Dulbecco's modified Eagle's medium and Ham's F12 medium containing 1.2 g/L of sodium bicarbonate (Sigma Chemical Co., St. Louis, Mo.) supplemented with 15 mM HEPES and fetal bovine serum, 10%, at a temperature of 37° C. as recommended by the ATCC.
These pancreatic adenocarcinoma cells were subcultured (passaged) by removing spent (i.e., old) medium by aspiration, and then adding calcium and magnesium free Hank's Balanced Salt Solution with 0.25% trypsin and 0.03% ethylenediaminetetracetic acid (EDTA). The culture was allowed to sit at room temperature for 2 to 5 minutes. Fresh medium was added to the adenocarcinoma cells which were dispensed into new flasks, with subculture every 6 to 8 days. The growth medium was changed every three days.
After these adenocarcinoma cells were subcultured for 24 hours, they were then seeded to coverslips and transferred to 24 microwell plates (NUCOLON, Roskilde Denmark), with 1 ml Dulbeco Modified Eagle's (DME)/[…] nutrient culture media (Sigma Chemical Co.) with 10% fetal bovine serum (Atlanta Biologicals, Norcross, Ga.). After 24 hours, wells were washed twice with Dulbecco's Modified Eagle's/Ham's F12 with 0.1% bovine serum albumin (Sigma-Aldrich, St. Louis, Mo.) and allowed to incubate in this serum free medium for an additional 24 hour period of serum deprivation. Serum-free media was utilized to remove all variables (EGF, etc.) present in serum in order that interpretation of any data obtained would be straightforward. After 24 hours of serum deprivation, media volume was reduced to 250 μL per well with or without the respective peptide hormones at their 1 μM concentrations (1% of this volume). The adenocarcinoma cells were then incubated for various periods of time (24, 48, 72, and 96 hours).At the end of the above time periods, hematoxylin was added for 5 minutes to make the cells more visible for counting, and then they were washed for 5 minutes. The coverslips were then placed face down on microscope slides with the addition of 6 μl of histologic grade phosphate buffered saline (PBS)/I-glycine that had been filtered immediately before use with a 0.22 μm polyethersulfone, nonpyrogenic, sterile, low protein binding membrane (Corning 43117, Corning Inc., Corning, N.Y.). The number of adenocarcinoma cells were then counted with a cell counter evaluating ten fields of the microscope slide at 40× along the X-axis with an Olympus BH-2 microscope (Atlanta, Ga.). This evaluation was repeated on six separate occasions with the number of adenocarcinoma cells reflecting 60 observations for each group, i.e., 60 observations for controls and 60 observations for each of the four groups with respective peptide hormones. The only variable in this investigation was whether one of the four peptide hormones was added to the pancreatic adenocarcinoma cells. Otherwise all the adenocarcinoma cells were treated the same, i.e., with same culture medium, time of incubation, and processing of cells for the various investigations. […]

hepatoblastoma cells = conditions: cited from earlier work
rat mesangial cells = conditions: cited from earlier work

Compound: O=c1[nH]cc(F)c(=O)[nH]1 [5-FU, 5-fluorouracil]
- decrease in pancreatic adenocarcinoma cells in culture [1]: 16%

Compound: CCCCC[C@H](O)/C=C/[C@H]1[C@H](O)CC(=O)[C@@H]1C/C=C\CCCC(=O)O [prostaglandin E2, (5Z, 11α, 13E, 15S)-11, 15-dihydro-9-oxo-prosta-5, 13-dien-I-oic acid]
- decrease in DNA synthesis ([2]; 10 pg/ml): 4%
- decrease in DNA synthesis ([2]; 1 ng/ml): 5%
- decrease in DNA synthesis ([2]; 10 ng/ml): 5%
- decrease in DNA synthesis ([2]; 0.1 μg/ml): 9%
- decrease in DNA synthesis ([2]; 1 μg/ml): 11%
- decrease in DNA synthesis ([2]; 10 μg/ml): 14%
- decrease in DNA synthesis ([2]; 1 mg/ml): 23%

Compound: LANP: first 30 amino acids from the N-terminal end of the ANP prohormone (NPMYNAVSNADLMDFKNLLDHLEEKMPLED; long-acting natriuretic peptide; UniProt P01160 26-55, looked up, fragment)
- decrease in the number of adenocarcinoma cells ([3]; 1 μM, 24 hours, vs untreated cells): 47%
- number of adenocarcinoma cells ([3]; 1 μM, 24 hours, untreated 183.4+/−8): 97.7+/−3 cells per high powered field
- number of cancer cells compared to controls ([3]; 1 μM): 43%
- decrease in the number of adenocarcinoma cells ([3]; 1 μM, 72 hours, vs untreated cells): 47%
- decrease in the number of adenocarcinoma cells ([3]; 1 μM, 96 hours, vs untreated cells): 48%
- decrease in the number of adenocarcinoma cells ([3]; time not stated): ~50%
- inhibition of DNA synthesis ([2]; 1 μM): 84%

Compound: Nc1nc2c(nc(Br)n2[C@@H]2O[C@@H]3COP(=O)(O)O[C@H]3[C@H]2O)c(=O)[nH]1 [8-bromo cyclic GMP, 8-bromoguanosine 3′,5′-cyclic monophosphate]
- decrease in DNA synthesis ([2]; 1 nM): 25%
- decrease in DNA synthesis ([2]; 1 μM): 34%
- decrease in DNA synthesis ([2]; 100 μM): 39%
- decrease in DNA synthesis ([2]; 1 mM): 42%
- decrease in DNA synthesis ([2]; 3 mM): 46%
- decrease in DNA synthesis ([2]; 5 mM): 51%

Compound: CC[C@H](C)[C@@H]1NC(=O)[C@H](CCCNC(=N)N)NC(=O)[C@H](CC(=O)O)NC(=O)[C@H](CCSC)NC(=O)[C@H](CCCNC(=N)N)NC(=O)CNC(=O)CNC(=O)[C@H](Cc2ccccc2)NC(=O)[C@@H](NC(=O)[C@H](CO)NC(=O)[C@H](CO)NC(=O)[C@H](CCCNC(=N)N)NC(=O)[C@H](CCCNC(=N)N)NC(=O)[C@H](CC(C)C)NC(=O)[C@@H](N)CO)CSSC[C@@H](C(=O)N[C@@H](CC(N)=O)C(=O)N[C@@H](CO)C(=O)N[C@@H](Cc2ccccc2)C(=O)N[C@@H](CCCNC(=N)N)C(=O)N[C@@H](Cc2ccc(O)cc2)C(=O)O)NC(=O)CNC(=O)[C@H](CC(C)C)NC(=O)CNC(=O)[C@H](CO)NC(=O)[C@H](CCC(N)=O)NC(=O)[C@H](C)NC(=O)CNC1=O [ANP]
- inhibition of DNA synthesis (hepatoblastoma cells): 22%
- inhibition of DNA synthesis (rat mesangial cells): 47% to 60
- number of cancer cells compared to controls ([3]; 1 μM): 33%
- inhibition of DNA synthesis ([2]; 1 μM): 83%
